Consider five compounds from patent US20250129093A1, “COMPOSITIONS AND METHODS RELATING TO ATP/P2X7R SIGNALING INHIBITION” (THE CHILDREN'S MEDICAL CENTER CORPORATION, priority 2022, published 2025).

Experiment [1] concerns P2X7R−/− mice receiving a Bm12 heart. The experiment is described as follows: Heart allograft survival in P2X7R-/- mice receiving a Bm12 heart. Particulars: Bm12 heart transplant, p=0.04. In kind it is in vivo. An excerpt:
(§1) The P2X7R mutation rs3751143 is associated with the development of increased immunological events, particularly with the development of a HyperTh-17 syndrome, which is mainly characterized by an imbalance between T-helper cells which favors generation of Th-17 cells.

The test system of experiment [2] is CD4+ T cells obtained from individuals carrying the P2X7R mutation. The experiment is described as follows: Th17 generation in vitro in CD4+ T cells from individuals carrying the P2X7R mutation. In kind it is cell-based, human. Conditions: inhibitor added to the cell culture, carriers of P2X7R mutation rs3751143.
Text: as §1

In the next experiment the test system is C57BL6 (B6) mice. Kind of experiment: Survival (longevity) of C57BL6 (B6) mice. The format is in vivo. Conditions: 7.5 mg/Kg. An excerpt: Given that administration of P2X7R inhibitors is associated with a slow-down of metabolic processes within activated cells/tissues (9) and the effect of eATP in favoring cell senescence, it is contemplated herein that this mechanism could be responsible for promoting longevity and prolonging survival.

In experiment [3] the test system is P2X7R signaling through eATP. Particulars: cells of individuals who do not carry the P2X7R mutation; cited from earlier work.
The test system of experiment [4] is P2X7R signaling through eATP. The experiment is described as follows: BzATP-stimulated CD4+ T cells from human PBMCs, expression of Th2-related factors. Conditions: for inhibition of activation of P2X7R signaling through eATP (expression of Th2-related factors IL-4 and IRF4): human CD4+ T cells stimulated with benzoyl ATP (BzATP). The format is cell-based. The text has this:
Peripheral blood mononuclear cell (PBMCs) were isolated from collected human blood samples and recovered CD4+ T cells were purified and treated with different compounds. In particular cells were activated upon stimulation with benzoyl ATP (BzATP) and treated with human P2X7R inhibitor CE-224,535, P2X7 receptor antagonist oATP and the 6 small molecules identified in the bioinformatics and HTVS approaches above.

“Also recorded” adds a separate entry of the source.

For the compound `Nc1ncnc2c1ncn2[C@@H](C=O)O[C@@H](C=O)COP(=O)(O)OP(=O)(O)OP(=O)(O)O` [oATP], the allograft survival entry in experiment [1] is on record as “significantly prolongs allograft survival”. Further, the Th17 generation entry in experiment [2] is “at least partially inhibited; also recorded: partially abrogated”. The MST in the experiment on C57BL6 (B6) mice was found to be 19.5 weeks. Moreover, the treated animals alive in the experiment on C57BL6 (B6) mice (at 17 weeks) was 60%. Further, in the experiment on C57BL6 (B6) mice (p=0.01, 7.5 mg/kg), the “survival as compared to untreated controls” value is reported as “significantly prolongs survival; also recorded: increased survival”. Further, the “neutralizing activation of P2X7R signaling through eATP” value in experiment [3] is “capable of neutralizing activation of P2X7R signaling”.

For `O=C(O)c1ccccc1-c1ccccc1C(=O)Nc1cccc(-c2nc3ccccc3[nH]2)c1` [compound 6, 2′-[3-(1H-Benzoimidazol-2-yl)-phenylcarbamoyl]-biphenyl-2-carboxylic acid], the “inhibition of activation of P2X7R signaling through eATP (expression of Th2-related factors IL-4 and IRF4)” value (“inhibition” below) in experiment [4] is “significative ability to inhibit the activation of P2X7R signaling”.

With `OC(CNCc1ccccc1)COc1ccc(OCC(O)CNCc2ccccc2)cc1` (centres unmarked) [compound 3, 1-Benzylamino-3-[4-(3-benzylamino-2-hydroxy-propoxy)-phenoxy]-propan-2-ol], in experiment [4], the “inhibition” value is recorded as “significative ability to inhibit the activation of P2X7R signaling”.

For `COc1ccc(/C=N\Nc2cc(C)nc(NCc3ccccc3)n2)c(OC)c1` [Compound #5, Benzyl-{4-[N′-(2,4-dimethoxy-benzylidene)-hydrazino]-6-methyl-pyrimidin-2-yl}-amine], in experiment [4] (PBMCs, FIG. 2, compared with CE-224,535 and oATP), the “effect on the expression of Th2-related factors GATA3, IL-4 and IRF4” value is “effect comparable to that of human P2X7R inhibitor CE-224,535 and P2X7 receptor antagonist oATP”. For the same compound, the “inhibition” value in experiment [4] is “significative ability to inhibit the activation of P2X7R signaling”.

With `Cc1ccccc1Nc1nc2nonc2nc1N/N=C\c1cccc2ccccc12` [compound 4, [6-(N′-Naphthalen-1-ylmethylene-hydrazino)-[1,2,5]oxadiazolo[3,4-b]pyrazin-5-yl]-o-tolyl-amine], the “inhibition” value in experiment [4] was “significative ability to inhibit the activation of P2X7R signaling”.
